Where two headings read alike, the source gives them in different places.
Tests used:
Type in all cases: cell-based
[1] = test system: K. pneumo JMI 2681; assay: MIC, antibacterial and synergistic activity
[2] = test system: E.coli JMI 4103; assay: MIC, antibacterial and synergistic activity; settings: Escherichia coli, JMI4103; E.coli JMI 4103 (KPC-2, Tem-1, CMY-Type); substance alone
[3] = test system: K. pneumo JMI 2673; assay: MIC, antibacterial and synergistic activity; settings: K. pneumo JMI 2673 (CTX-M14 (ESBL)); substance alone
[4] = test system: E. cloacae JMI 36; assay: MIC, antibacterial and synergistic activity; settings: Enterobacter cloacae, JMI36
[5] = test system: metallo β-lactamase producing bacteria; assay: MIC in combination with various antibiotics against metallo β-lactamase producing bacteria (Tables 10-12); settings: agent alone
Experimental: (§1) In the Tables 10 - 12, compounds herein disclosed were tested in combination with various antibiotics against metallo β-lactamase producing bacteria.

[6] = test system: E. coli JMI 4080; assay: MIC, antibacterial and synergistic activity; settings: Escherichia coli, JMI4080, E. coli JMI 4080 (Tem-10); substance alone
[7] = test system: P. aerug JMI 149; assay: MIC, antibacterial and synergistic activity
[8] = test system: E. coli ATCC 25922; assay: MIC, antibacterial and synergistic activity; settings: Escherichia coli, ATCC25922; E. coli ATCC 25922 (Wt); substance alone
[9] = test system: E. coli JMI 10767; assay: MIC, antibacterial and synergistic activity; settings: Escherichia coli, JMI10767; E. coli JMI 10767 (Wt); substance alone
[10] = test system: A. baumanii JMI 2659; assay: MIC, antibacterial and synergistic activity; settings: Acinetobacter baumannii, JMI2659
[11] = test system: P. aerug JMI 2686; assay: MIC, antibacterial and synergistic activity; settings: P. aerug JMI 2686 (KPC-2 (Cpase)); substance alone
Experimental: (§2) In the Tables 10 - 12, compounds herein disclosed were tested in combination with various antibiotics against metallo β-lactamase producing bacteria. Table 3: Synergy of the inhibitor Ex. 1 (4 µg/mL) in combination with antibiotics

[12] = test system: K. pneumo JMI 4088; assay: MIC, antibacterial and synergistic activity; settings: K. pneumo JMI 4088 (KPC-3 (Cpase)); substance alone
Experimental: as §2

[13] = test system: E. coli JMI 2671; assay: MIC, antibacterial and synergistic activity; settings: Escherichia coli, JMI2671, E. coli JMI 2671 (VIM-19 (Cpase)); substance alone
Experimental: as §2

[14] = test system: K. pneumo JMI 2699; assay: MIC, antibacterial and synergistic activity; settings: K. pneumo JMI 2699 (VIM-1, CTX-M3), substance alone
Experimental: as §2

[15] = test system: E. coli JMI 10768; assay: MIC, antibacterial and synergistic activity; settings: Escherichia coli, JMI10768; E. coli JMI 10768 (CTX-M15 (Weak ESBL)); substance alone
Experimental: as §2

[16] = test system: E. coli JMI 2665; assay: MIC, antibacterial and synergistic activity; settings: Escherichia coli
Experimental: as §2

[17] = test system: K.pneumo JMI 4109; assay: MIC, antibacterial and synergistic activity; settings: K.pneumo JMI 4109 (SHV-1, SHV-12); substance alone
[18] = test system: K. pneumo JMI 2674; assay: MIC, antibacterial and synergistic activity; settings: K. pneumo JMI 2674 (CTX-M15 (ESBL)); substance alone
[19] = test system: K. pneumo JMI 2693; assay: MIC, antibacterial and synergistic activity; settings: K. pneumo JMI 2693 (NDM-1 (Cpase)); substance alone
Experimental: as §1

[20] = test system: E. coli JMI 2692; assay: MIC, antibacterial and synergistic activity; settings: Escherichia coli, JMI2692
Experimental: as §1

[21] = test system: K. pneumo JMI 2697; assay: MIC, antibacterial and synergistic activity; settings: K. pneumo JMI 2697 (IMP-4 (Cpase)); substance alone
Experimental: as §1

[22] = test system: E. coli JMI 11103; assay: MIC, antibacterial and synergistic activity; settings: Escherichia coli, JMI11103, E. coli JMI 11103 (CTX-M15 (Intermediate ESBL)); substance alone
[23] = test system: E. coli JMI 10770; assay: MIC, antibacterial and synergistic activity; settings: Escherichia coli, JMI10770; E. coli JMI 10770 (CTX-M15 (Hyper ESBL)); substance alone
[24] = test system: K. pneumo JMI 4106; assay: MIC, antibacterial and synergistic activity; settings: K. pneumo JMI 4106 (KPC-3, TEM-1, SHV-12, SHV-141), substance alone
[25] = test system: K. pneumo JMI 2674; assay: MIC, antibacterial and synergistic activity; settings: K. pneumo JMI 2674 (CTX-M15 (ESBL)); substance alone; remark: listed apart in the source
Experimental: as §2

[26] = test system: K. pneumo JMI 4088; assay: MIC, antibacterial and synergistic activity; settings: K. pneumo JMI 4088 (KPC-3 (Cpase)); substance alone; remark: listed apart in the source
[27] = test system: P. aerug JMI 2686; assay: MIC, antibacterial and synergistic activity; settings: P. aerug JMI 2686 (KPC-2 (Cpase)); substance alone; remark: listed apart in the source
[28] = Citrobacter freundii, Isolate No 49469, Enzyme NDM-1, unit assumed
[29] = Enterobacter aerogenes, Isolate No 8397, Enzyme VIM-1, unit assumed
[30] = Enterobacter aerogenes, Isolate No 47683, Enzyme VIM-12, unit assumed
[31] = Enterobacter cloacae, Isolate No 4, Enzyme VIM-6, unit assumed
[32] = Enterobacter cloacae, Isolate No 10, Enzyme IMP-26, unit assumed
[33] = Enterobacter cloacae, Isolate No 25, Enzyme IMP-4, unit assumed
[34] = Enterobacter cloacae, Isolate No 1068, Enzyme VIM-2, unit assumed
[35] = Enterobacter cloacae, Isolate No 1471, Enzyme VIM-1, unit assumed
[36] = Enterobacter cloacae, Isolate No 3686, Enzyme IMP-1, unit assumed
[37] = Enterobacter cloacae, Isolate No 53477, Enzyme NDM-1, unit assumed
[38] = Escherichia coli, Isolate No 17, Enzyme NDM-1, unit assumed
[39] = Escherichia coli, Isolate No 49, Enzyme NDM-1, unit assumed
[40] = Escherichia coli, Isolate No 53749, Enzyme NDM-1, unit assumed
[41] = Klebsiella oxytoca, Isolate No 24825, Enzyme IMP-26, unit assumed
[42] = Klebsiella oxytoca, Isolate No 31141, Enzyme VIM-23, unit assumed
[43] = Klebsiella pneumoniae, Isolate No 16, Enzyme VIM-5, unit assumed
[44] = Klebsiella pneumoniae, Isolate No 38, Enzyme NDM-1, unit assumed
[45] = Providencia stuartii, Isolate No 26582, Enzyme VIM-1, unit assumed
[46] = Serratia marcescens, Isolate No 35, Enzyme IMP-4, unit assumed
[47] = Serratia marcescens, Isolate No 36098, Enzyme IMP-19, unit assumed
[48] = E. coli JMI 2692 (NDM-1, TEM-1, CTX-M-15), substance alone, read-out: MIC

With `C[C@@H](O)[C@H]1C(=O)N2C(C(=O)O)=C(S[C@@H]3CN[C@H](C(=O)N(C)C)C3)[C@H](C)[C@H]12` [Meropenem, meropenem, reference compound] the MIC ([1]; K. pneumo JMI 2681 (Oxa-48 (Cpase)), substance alone, read-out: MIC) was 64 µg/mL, the MIC [2] was 64 µg/mL and the MIC [3] was ≤ 1 µg/mL. For the same molecule, the MIC ([4]; E. cloacae JMI 36 (P99), substance alone, read-out: MIC) was ≤ 1 µg/mL, the MIC [5, 28] was 16 µg/mL and the MIC [5, 29] was 64 µg/mL. For the same molecule, the MIC [5, 30] was 8 µg/mL, the MIC [5, 31] was 2 µg/mL and the MIC [5, 32] was 16 µg/mL. It also gave an MIC [5, 33] of 16 µg/mL, an MIC [5, 34] of 2 µg/mL and an MIC [5, 35] of 2 µg/mL. It also gave an MIC [5, 36] of 8 µg/mL, an MIC [5, 37] of 32 µg/mL and an MIC [5, 38] of 32 µg/mL. The MIC [5, 39] was 8 µg/mL, the MIC [5, 40] was 64 µg/mL and the MIC [5, 41] was 32 µg/mL. The MIC [5, 42] was 2 µg/mL, the MIC [5, 43] was 8 µg/mL and the MIC [5, 44] was 32 µg/mL. It also gave an MIC [5, 45] of 1 µg/mL, an MIC [5, 46] of 8 µg/mL and an MIC [5, 47] of 8 µg/mL. The MIC [6] was ≤ 1 µg/mL, the MIC ([7]; P. aerug JMI 149 (Bla+++D+), substance alone, read-out: MIC) was 4 µg/mL and the MIC [8] was 0.06 µg/mL. The MIC [9] was ≤ 1 µg/mL, the MIC ([10]; A. baumanii JMI 2659 (Ges-14 (Cpase)), substance alone, read-out: MIC) was 64 µg/mL and the MIC [11] was 512 µg/mL. For the same molecule, the MIC [12] was 512 µg/mL, the MIC [13] was 64 µg/mL and the MIC ([14]; read-out: MIC) was 32 µg/mL. For the same molecule, the MIC [15] was ≤ 1 µg/mL, the MIC ([16]; JMI2665) was ≤ 1 µg/mL and the MIC [17] was ≤ 1 µg/mL. The MIC [18] was ≤ 1 µg/mL, the MIC [19] was 8 µg/mL and the MIC [20] was 256 µg/mL. The MIC [21] was 64 µg/mL, the MIC [22] was ≤ 1 µg/mL and the MIC [23] was ≤ 1 µg/mL.

In the case of `CC(C)(O/N=C(\C(=O)N[C@@H]1C(=O)N2C(C(=O)[O-])=C(C[n+]3ccccc3)CS[C@H]12)c1csc(N)n1)C(=O)O` [Ceftazidime, ceftazidime, reference compound], the MIC [1] was 512 µg/mL, the MIC ([24]; read-out: MIC) was > 512 µg/mL and the MIC [2] was > 512 µg/mL. For the same molecule, the MIC [3] was 32 µg/mL, the MIC [4] was 128 µg/mL and the MIC [5, 28] was > 256 µg/mL. The MIC [5, 29] was > 256 µg/mL, the MIC [5, 30] was 256 µg/mL and the MIC [5, 31] was 256 µg/mL. For the same molecule, the MIC [5, 32] was > 256 µg/mL, the MIC [5, 33] was > 256 µg/mL and the MIC [5, 34] was 128 µg/mL. The MIC ([5]; Enterobacter cloacae, Isolate No 1280, Enzyme VIM-5, unit assumed) was 64 µg/mL, the MIC [5, 35] was > 256 µg/mL and the MIC ([5]; Enterobacter cloacae, Isolate No 1874, Enzyme IMP-21, unit assumed) was 32 µg/mL. The MIC [5, 36] was > 256 µg/mL, the MIC [5, 37] was > 256 µg/mL and the MIC ([5]; Escherichia coli, Isolate No 13, Enzyme IMP-1, unit assumed) was 256 µg/mL. For the same molecule, the MIC [5, 38] was > 256 µg/mL, the MIC [5, 39] was > 256 µg/mL and the MIC [5, 40] was > 256 µg/mL. The MIC [5, 41] was > 256 µg/mL, the MIC [5, 42] was 128 µg/mL and the MIC [5, 43] was > 256 µg/mL. For the same molecule, the MIC [5, 44] was > 256 µg/mL, the MIC [5, 45] was > 256 µg/mL and the MIC [5, 46] was 64 µg/mL. It also gave an MIC [5, 47] of 128 µg/mL, an MIC [6] of 64 µg/mL and an MIC [7] of 256 µg/mL. The MIC [8] was 0.25 µg/mL, the MIC [9] was ≤ 1 µg/mL and the MIC [10] was 512 µg/mL. For the same molecule, the MIC [11] was 512 µg/mL, the MIC [13] was 64 µg/mL and the MIC ([14]; read-out: MIC) was > 512 µg/mL. For the same molecule, the MIC [15] was 8 µg/mL, the MIC ([16]; JMI2665, E. coli JMI 2665 (CMY-2 (Plasmid Cpase)), substance alone, read-out: MIC) was 8 µg/mL and the MIC [25] was 512 µg/mL. The MIC [17] was 8 µg/mL, the MIC [19] was > 512 µg/mL and the MIC [20, 48] was > 512 µg/mL. The MIC [21] was > 512 µg/mL, the MIC [22] was 32 µg/mL and the MIC [23] was 64 µg/mL. The MIC [26] was > 512 µg/mL.

`C[C@H]1[C@H](NC(=O)/C(=N\OC(C)(C)C(=O)O)c2csc(N)n2)C(=O)N1S(=O)(=O)O` [Aztreonam, aztreonam, reference compound] was tested, and the MIC [24] was 512 µg/mL, the MIC ([24]; read-out: MIC) was > 512 µg/mL and the MIC [2] was > 512 µg/mL. For the same molecule, the MIC [27] was > 512 µg/mL, the MIC ([5]; Escherichia coli, Isolate No 13, Enzyme IMP-1) was 16 and the MIC [5, 46] was ≤ 0.12 µg/mL. The MIC [6] was 64 µg/mL, the MIC [8] was 0.25 µg/mL and the MIC [9] was ≤ 1 µg/mL. For the same molecule, the MIC [12] was 512 µg/mL, the MIC [14] was 128 µg/mL and the MIC ([14]; read-out: MIC) was > 512 µg/mL. For the same molecule, the MIC [15] was 8 µg/mL, the MIC [25] was 512 µg/mL and the MIC [18] was 32 µg/mL. For the same molecule, the MIC [19] was > 512 µg/mL, the MIC [20, 48] was > 512 µg/mL and the MIC [21] was > 512 µg/mL. For the same molecule, the MIC [22] was 32 µg/mL, the MIC [23] was 64 µg/mL and the MIC [26] was > 512 µg/mL.

From EP2931723B1, “NEW BICYCLIC COMPOUNDS AND THEIR USE AS ANTIBACTERIAL AGENTS AND -LACTAMASE INHIBITORS” (Fedora Pharmaceuticals Inc., priority 2012, dated 2014)
